The Kinase Knowledgebase extract (Sharma et al. 2016)

The compounds below were run against PIK3CA (human) (UniProt P42336) (assay: Inhibition of PIK3CA Kinase Activity).
PIK3CA (human), sequence (P42336 whole entry, looked up): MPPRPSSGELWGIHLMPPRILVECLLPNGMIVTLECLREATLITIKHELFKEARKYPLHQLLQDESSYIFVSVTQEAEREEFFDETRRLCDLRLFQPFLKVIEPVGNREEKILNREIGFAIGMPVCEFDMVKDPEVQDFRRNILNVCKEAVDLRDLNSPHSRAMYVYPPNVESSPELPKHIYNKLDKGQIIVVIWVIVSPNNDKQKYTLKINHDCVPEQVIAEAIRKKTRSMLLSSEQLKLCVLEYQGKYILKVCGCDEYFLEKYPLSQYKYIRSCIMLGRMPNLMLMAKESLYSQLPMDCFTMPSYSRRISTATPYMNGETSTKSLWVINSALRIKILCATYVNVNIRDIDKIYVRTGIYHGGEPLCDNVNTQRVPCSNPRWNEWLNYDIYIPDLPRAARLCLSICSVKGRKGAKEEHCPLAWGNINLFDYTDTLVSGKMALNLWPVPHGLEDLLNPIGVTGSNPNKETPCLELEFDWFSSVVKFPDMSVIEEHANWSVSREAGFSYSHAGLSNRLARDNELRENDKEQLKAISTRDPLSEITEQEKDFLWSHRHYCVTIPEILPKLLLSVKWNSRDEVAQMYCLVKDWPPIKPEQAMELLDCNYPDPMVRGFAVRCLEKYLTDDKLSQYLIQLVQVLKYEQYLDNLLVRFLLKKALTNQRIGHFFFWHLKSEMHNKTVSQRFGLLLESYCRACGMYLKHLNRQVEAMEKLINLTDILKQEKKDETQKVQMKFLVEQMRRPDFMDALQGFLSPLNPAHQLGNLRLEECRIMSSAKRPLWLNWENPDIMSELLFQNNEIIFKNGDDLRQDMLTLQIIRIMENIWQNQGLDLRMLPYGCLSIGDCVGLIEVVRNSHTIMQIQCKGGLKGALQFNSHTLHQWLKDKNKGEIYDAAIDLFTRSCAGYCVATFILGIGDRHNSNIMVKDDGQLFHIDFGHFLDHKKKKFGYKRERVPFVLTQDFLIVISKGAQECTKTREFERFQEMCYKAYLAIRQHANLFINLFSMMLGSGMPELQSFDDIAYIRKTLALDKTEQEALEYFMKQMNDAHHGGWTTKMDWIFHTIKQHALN

In order of falling IC50:
1. O=C(O)c1cccc(-c2nc(N3CCOCC3)c3cnn(C4CCN(Cc5ccccc5)CC4)c3n2)c1  10000 nM
2. c1ccc(CN2CCC(n3ncc4c(N5CCOCC5)nc(-c5cccc(-c6ccccc6)c5)nc43)CC2)cc1  10000 nM
3. c1cc2cc(-c3nc(N4CCOCC4)c4cnn([C@@H]5CCCNC5)c4n3)ccc2[nH]1  10000 nM
4. CN(C)C(=O)c1ccc(-c2nc(N3CCOCC3)c3cnn(C4CCN(Cc5ccccc5)CC4)c3n2)cc1  10000 nM
5. c1ccc(CN2CCC(n3ncc4c(N5CCOCC5)nc(-c5cccc6ccccc56)nc43)CC2)cc1  10000 nM
6. c1ccc(-n2ncc3c(N4CCOCC4)nc(-c4csc5ccccc45)nc32)cc1  10000 nM
7. c1cc2cc(-c3nc(N4CCOCC4)c4cnn([C@H]5CCCNC5)c4n3)ccc2[nH]1  10000 nM
8. CN(C)c1cccc(-c2nc(N3CCOCC3)c3cnn(C4CCN(Cc5ccccc5)CC4)c3n2)c1  9130 nM
9. c1ccc(CN2CCC(n3ncc4c(N5CCOCC5)nc(-c5cccc6c5sc5ccccc56)nc43)CC2)cc1  8770 nM
10. c1ccc(CN2CCC(n3ncc4c(N5CCOCC5)nc(-c5ccc(-c6ccccc6)cc5)nc43)CC2)cc1  8570 nM
11. c1ccc(CN2CCC(n3ncc4c(N5CCOCC5)nc(-c5ccc6ccccc6c5)nc43)CC2)cc1  8200 nM
12. CCOC(=O)Nc1ccc(-c2nc(N3CCOCC3)c3cnn(C4CCN(C(=O)OCC)CC4)c3n2)cc1  6720 nM
13. O=C(c1ccc(F)cc1)N1CCC(n2ncc3c(N4CCOCC4)nc(-c4ccc5[nH]ccc5c4)nc32)CC1  1750 nM
14. Clc1ccccc1CN1CCC(n2ncc3c(N4CCOCC4)nc(-c4ccc5[nH]ccc5c4)nc32)CC1  1700 nM
15. CC(=O)Nc1ccc(-c2nc(N3CCOCC3)c3cnn(C4CCCCO4)c3n2)cc1 (centres undefined)  1650 nM
16. Nc1ccc(-c2nc(N3CCOCC3)c3cn[nH]c3n2)cc1  1610 nM
17. CNC(=O)Nc1ccc(-c2nc(N3CCOCC3)c3cnn(C4CCN(COC)CC4)c3n2)cc1  1560 nM
18. O=C(c1cccc(C(F)(F)F)c1)N1CCC(n2ncc3c(N4CCOCC4)nc(-c4ccc5[nH]ccc5c4)nc32)CC1  1430 nM
19. COC(=O)Nc1ccc(-c2nc(N3CCOCC3)c3cnn(C4CCN(Cc5ccc(F)nc5)CC4)c3n2)cc1  1200 nM
20. COC(=O)Nc1ccc(-c2nc(N3CCOCC3)c3cnn(C4CCN(C(=O)c5ccc(C#N)cc5)CC4)c3n2)cc1  999 nM
21. CN(C)C(=O)C=CCN1CCC(n2ncc3c(N4CCOCC4)nc(-c4ccc5[nH]ccc5c4)nc32)CC1  480 nM
22. c1ccc(-n2ncc3c(N4CCOCC4)nc(-c4cncnc4)nc32)cc1  440 nM
23. NC(=O)Cc1cccc(-c2nc(N3CCOCC3)c3cnn(-c4ccccc4)c3n2)c1  357 nM
24. CNC(=O)Nc1ccc(-c2nc(N3CCOCC3)c3cnn(C4=CC[S+]([O-])CC4)c3n2)cc1 (centres undefined)  80 nM
25. CNC(=O)Nc1ccc(-c2nc(N3CCOCC3)c3cnn(C4=CCS(=O)(=O)CC4)c3n2)cc1  74 nM
26. CNC(=O)Nc1ccc(-c2nc(N3CCOCC3)c3cnn(C4CCN(C(N)=O)CC4)c3n2)cc1  66 nM
27. CC(C)(C)OC(=O)N1CCC(n2ncc3c(N4CCOCC4)nc(-c4ccc(NC(=O)Nc5cccnc5)cc4)nc32)CC1  32 nM
28. CNC(=O)Nc1ccc(-c2nc(N3CCOCC3)c3cn[nH]c3n2)cc1  14 nM

`NC(=O)Nc1ccc(-c2nc(N3CCOCC3)c3cnn(C4CCN(C(=O)c5ccccc5)CC4)c3n2)cc1` gave an IC80 of 84 nM.
